Consider 7 compounds from patent EP0321100A2, “Piperazine derivatives, their acid addition salts and a process for the preparation of same” (SPOFA spojené podniky pro zdravotnickou vyrobu, priority 1987, dated 1989).

Structures are written as SMILES. Read-outs that look alike come from different tables or passages of the source.

Data set [1] concerns re-uptake of serotonin. The experiment in a line: Inhibition of re-uptake of serotonin in rat brain. It counts as biochemical.
For data set [2], the system named is adrenaline-induced lethality. The experiment in a line: Adrenolytic activity in mice (adrenaline-induced lethality). It counts as in vivo. The note with it: oral dose 100 mg/kg. As for the experimental part:
(§1) Discoordinating effect (rota-rod test in mice), medium effective dose ED₅₀ 44.0 mg/kg, is still […] than for thioridazine (Taeschler M., Cerletti A., Schweiz.Med. Wochschr. 88, 1216, 1958); this is advantageous. […] Adrenolytic activity in mice is very low: an oral dose as high as 100 mg/kg prevents adrenaline-induced lethality in 20 % of the animals.

A short description of data set [3]: in vivo. The following applies: mouse, po. Also noted: species or system mice. On the procedure:
as §1

The nature of data set [4]: in vivo. The note with it: mouse, po.
The test system of data set [5] is re-uptake of noradrenaline. As to the kind of experiment: Inhibition of re-uptake of noradrenaline in rat brain. It is filed as biochemical.
The target of data set [6] is T1, dopamine D-2 receptors in the rat brain striatum (Rattus norvegicus, UniProt P61169).
T1 construct: dopamine D-2 receptors in the rat brain striatum; from tissue; host or cells: rat brain striatum
The experiment in a line: Inhibition of binding of 3H-spiperone to dopamine D-2 receptors. The note with it: inhibition of binding of 0.5 nM ³H-spiperone, read-out: medium inhibitory concentration IC₅₀.

Data set [7] concerns apomorphine-induced emesis in dogs. As to the kind of experiment: Inhibition of apomorphine-induced emesis in dogs. It is filed as in vivo. The following applies: 10 mg/kg, interval of 4 hours after administration.
The target in data set [8] is T2, dopamine D-1 receptors in rat striatum (Rattus norvegicus, UniProt P18901).
T2 construct: dopamine D-1 receptors in rat striatum; from tissue; host or cells: rat striatum
As to the kind of experiment: Affinity to dopamine D-1 receptors. It counts as binding.

Data set [9] deals with Maccacus rhesus monkeys. The following applies: rhesus monkey, in vivo, po, 10 mg/kg.
The test system of data set [10] is dopamine turnover and metabolism in rat brain striatum. As to the kind of experiment: Antidopaminergic activity: effect on dopamine turnover and metabolism (homovanillic acid level) in rat brain. It counts as in vivo. The following applies: for minimal effective dose: Rattus norvegicus, po, read-out: threshold dose which significantly increased homovanillic acid level; for increase in the concentration of homovanillic acid (% concentration of the metabolite in comparison with the control taken for 100 %): rat brain striatum, oral 80 mg/kg dose.

The nature of data set [11]: Anticholinergic activity in vitro.
Data set [12] in a line: Anticholinergic activity in vivo.
Data set [13] deals with spontaneous locomotor activity in mice. As to the kind of experiment: Inhibition of spontaneous locomotor activity in mice, photocell method after Dews. It is filed as in vivo. The following applies: Mus musculus, oral, read-out: medium inhibitory dose D₅₀.
The nature of data set [14]: Depot neuroleptic evaluation (method not described). It is filed as in vivo. The following applies: solution of the base (375 mg/ml) in Miglyol 812. The source says: 2-{4-[2-(2-Chloro-10,11-dihydrodibenzo(b,f)thiepin-10-yloxy)ethyl]piperazin 1-yl} ethanol (compound I-A); succinate 3-{4-[2-(2-Chloro-10,11-dihydrodibenzo(b,f)thiepin-10-yloxy)ethyl]piperazin-1-yl} propanol (I-B); bis(hydrogensuccinate) 1-[2-(2-Chloro-10,11-dihydrodibenzo(b,f)thiepin-10-yloxy)ethyl]-4-methylpiperazine (I-C); bis(hydrogensuccinate) 1-[2-(2-Chloro-10,11-dihydrodibenzo(b,f)thiepin-10-yloxy)ethyl]piperazine (I-D); succinate 2-{4-[2-(2-Chloro-10,11-dihydrodibenzo(b,f)thiepin-10-yloxy)ethyl]piperazin-1-yl} ethyl acetate (I-E); bis(hydrogensuccinate) 2-{4-[2-(2-Chloro 10,11-dihydrodibenzo(b,f)thiepin-10-yloxy)ethyl]piperazin-1-yl} ethyl decanoate (I-F); tested as a solution of the base (375 mg/ml) in Miglyol 812 (Trade Mark).

Data set [15] deals with mice. The note with it: reference compound, for comparison, literature citation given; cited from earlier work.

T1 sequence (P61169 whole entry): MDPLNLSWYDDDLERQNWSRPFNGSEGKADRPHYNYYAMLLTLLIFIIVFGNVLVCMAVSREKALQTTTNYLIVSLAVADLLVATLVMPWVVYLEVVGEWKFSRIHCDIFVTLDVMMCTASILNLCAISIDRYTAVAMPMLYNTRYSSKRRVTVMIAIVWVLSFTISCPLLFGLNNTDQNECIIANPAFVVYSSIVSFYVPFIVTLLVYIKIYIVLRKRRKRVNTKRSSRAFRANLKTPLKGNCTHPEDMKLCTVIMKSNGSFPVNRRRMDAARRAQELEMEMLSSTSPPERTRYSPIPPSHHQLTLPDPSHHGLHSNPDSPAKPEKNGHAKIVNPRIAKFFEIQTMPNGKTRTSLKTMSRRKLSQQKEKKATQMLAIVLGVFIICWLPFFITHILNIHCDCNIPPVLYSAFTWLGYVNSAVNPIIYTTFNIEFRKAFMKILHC
T2 sequence (P18901 whole entry): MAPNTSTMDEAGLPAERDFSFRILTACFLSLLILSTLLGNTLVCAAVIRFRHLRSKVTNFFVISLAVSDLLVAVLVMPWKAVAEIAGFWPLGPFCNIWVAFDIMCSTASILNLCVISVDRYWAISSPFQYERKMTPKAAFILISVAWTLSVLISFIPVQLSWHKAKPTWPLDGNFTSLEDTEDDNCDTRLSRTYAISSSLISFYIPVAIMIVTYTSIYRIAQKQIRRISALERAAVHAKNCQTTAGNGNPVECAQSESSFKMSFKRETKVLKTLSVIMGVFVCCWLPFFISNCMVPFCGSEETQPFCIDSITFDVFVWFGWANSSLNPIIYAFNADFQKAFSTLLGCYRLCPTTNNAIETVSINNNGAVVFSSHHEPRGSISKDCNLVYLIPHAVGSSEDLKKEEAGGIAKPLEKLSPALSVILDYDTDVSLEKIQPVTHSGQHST

In the case of `OCCN1CCN(CCOC2Cc3cc(Cl)ccc3Sc3ccccc32)CC1` (centres unmarked) [I-A, 2-{4-[2-(2-Chloro-10,11-dihydrodibenzo(b,f)thiepin-10-yloxy)ethyl]piperazin-1-yl} ethanol], the “inhibition of re-uptake of serotonin” value in data set [1] is given as “weak inhibitor”. In [2], the “prevention of adrenaline-induced lethality, share of the animals” value was found to be 20%. In data set [3], this compound showed a TD50 of 44 mg/kg. Further, the LD50 – broadly, the dose expected to kill half of the subjects tested – in data set [4] turned out to be 346 mg/kg. Besides, in [5], the “inhibition of re-uptake of noradrenaline” value is recorded as “weak inhibitor”. In addition, the IC50 in data set [6] came to 212 nM. For the same compound, the “inhibition of apomorphine-induced emesis” value in data set [7] is on record as “inhibitory effect”. For the same compound, the “affinity to dopamine D-1 receptors” value in data set [8] is “slight affinity”. Further, in data set [9], the blood pressure result was “do not affect”, the “general behaviour of the animals” value is given as “do not affect” and the “heart rhythm (pulse rate)” value is recorded as “do not affect”. Further, the minimal effective dose in data set [10] (corpus striatum) came out at 20 mg/kg. Also, the minimal effective dose in [10] (tuberculum olfactorium) was 10 mg/kg. Moreover, the “increase in the concentration of homovanillic acid (% concentration of the metabolite in comparison with the control taken for 100 %)” value in data set [10] was found to be 504%. Besides, the anticholinergic activity entry in data set [11] is listed as “very low”. Besides, the anticholinergic activity result in [12] is “very low”. In [13], the ED50 is 15.7 mg/kg.

`CCCCCCCCCC(=O)OCCN1CCN(CCOC2Cc3cc(Cl)ccc3Sc3ccccc32)CC1` (racemic) [I-F, 2-{4-[2-(2 Chloro-10,11-dihydrodibenzo(b,f)thiepin-10-yloxy)ethyl]piperazin-1-yl} ethyl decanoate]: the “duration of neuroleptic action” value in [14] was “substantially prolonged action”.

Regarding `CN1CCN(CCOC2Cc3cc(Cl)ccc3Sc3ccccc32)CC1` (centres unmarked) [I-C, 1-[2-(2-Chloro-10,11-dihydrodibenzo(b,f)thiepin-10-yloxy)ethyl]-4-methylpiperazine], in [4], the LD50 was found to be 401 mg/kg. Further, the IC50 in data set [6] came out at 264 nM.

`Clc1ccc2c(c1)CC(OCCN1CCNCC1)c1ccccc1S2` (centres unmarked) [I-D, 1-[2-(2-Chloro-10,11-dihydrodibenzo(b,f)thiepin-10-yloxy)ethyl]piperazine]: the LD50 in [4] was found to be 509 mg/kg. In data set [6], the IC50 was 1000 nM.

In the case of `CC(=O)OCCN1CCN(CCOC2Cc3cc(Cl)ccc3Sc3ccccc32)CC1` (racemic) [I-E, 2-{4-[2-(2-Chloro-10,11-dihydrodibenzo(b,f)thiepin-10-yloxy)ethyl]piperazin-1-yl} ethyl acetate], the LD50 in data set [4] came to 691 mg/kg. In addition, in data set [6], the IC50 turned out to be 219 nM. The “increase in the concentration of homovanillic acid (% concentration of the metabolite in comparison with the control taken for 100 %)” value in data set [10] is listed as 244%.

For the compound `CN1CCN(C2=Nc3cc(Cl)ccc3Nc3ccccc32)CC1` [clozapine, reference compound], the “acute toxicity, LD₅₀” value in data set [15] is 199 mg/kg. In addition, in data set [13], the ED50 came out at 1.05 mg/kg.

Compound `OCCCN1CCN(CCOC2Cc3cc(Cl)ccc3Sc3ccccc32)CC1` (centres unmarked) [I-B, 3-{4-[2-(2-Chloro-10,11-dihydrodibenzo(b,f)thiepin-10-yloxy)ethyl]piperazin-1-yl} propanol] yielded an LD50 in data set [4] of 618 mg/kg. The IC50 in [6] stood at 350 nM.
